Source: ChEMBL document CHEMBL5352454, “Design, synthesis, and evaluation of tricyclic compounds containing phenyl-tetrazole as XOR inhibitors” (Eur J Med Chem, 2023)
The source made the active and inactive calls. The rule behind the calls is not given here.

Legend:
[1] = target: T1, Xanthine dehydrogenase/oxidase (Homo sapiens, UniProt P47989); experiment: Inhibition of XOR (unknown origin) using xanthine as substrate incubated for 3 mins followed by xanthine addition by spectroscopy based analysis
[2] = system: Mus musculus; experiment: Hypouricemic activity in hypoxanthine/potassium oxonate-induced hyperuricemia mouse model assessed as reduction in serum uric acid level at 5 mg/kg, IG measured upto 9 hrs; assay type: functional, organism-based
[3] = system: Mus musculus; experiment: Hypouricemic activity in hypoxanthine/potassium oxonate-induced hyperuricemia mouse model assessed as reduction in uric acid level at 5 mg/kg, IG measured after 3 to 5 hrs; assay type: functional, organism-based; conditions: time 3-5 hrs
[4] = system: Mus musculus; experiment: Hypouricemic activity in hypoxanthine/potassium oxonate-induced hyperuricemia mouse model assessed as reduction in uric acid level at 5 mg/kg, IG measured after 3 hrs; assay type: functional, organism-based
[5] = target: T1, Xanthine dehydrogenase/oxidase; experiment: Inhibition of XOR (unknown origin) using xanthine as substrate at 10 uM incubated for 3 mins followed by xanthine addition by spectroscopy based analysis relative to control; conditions: 0.05 h

T1 sequence (P47989 whole entry): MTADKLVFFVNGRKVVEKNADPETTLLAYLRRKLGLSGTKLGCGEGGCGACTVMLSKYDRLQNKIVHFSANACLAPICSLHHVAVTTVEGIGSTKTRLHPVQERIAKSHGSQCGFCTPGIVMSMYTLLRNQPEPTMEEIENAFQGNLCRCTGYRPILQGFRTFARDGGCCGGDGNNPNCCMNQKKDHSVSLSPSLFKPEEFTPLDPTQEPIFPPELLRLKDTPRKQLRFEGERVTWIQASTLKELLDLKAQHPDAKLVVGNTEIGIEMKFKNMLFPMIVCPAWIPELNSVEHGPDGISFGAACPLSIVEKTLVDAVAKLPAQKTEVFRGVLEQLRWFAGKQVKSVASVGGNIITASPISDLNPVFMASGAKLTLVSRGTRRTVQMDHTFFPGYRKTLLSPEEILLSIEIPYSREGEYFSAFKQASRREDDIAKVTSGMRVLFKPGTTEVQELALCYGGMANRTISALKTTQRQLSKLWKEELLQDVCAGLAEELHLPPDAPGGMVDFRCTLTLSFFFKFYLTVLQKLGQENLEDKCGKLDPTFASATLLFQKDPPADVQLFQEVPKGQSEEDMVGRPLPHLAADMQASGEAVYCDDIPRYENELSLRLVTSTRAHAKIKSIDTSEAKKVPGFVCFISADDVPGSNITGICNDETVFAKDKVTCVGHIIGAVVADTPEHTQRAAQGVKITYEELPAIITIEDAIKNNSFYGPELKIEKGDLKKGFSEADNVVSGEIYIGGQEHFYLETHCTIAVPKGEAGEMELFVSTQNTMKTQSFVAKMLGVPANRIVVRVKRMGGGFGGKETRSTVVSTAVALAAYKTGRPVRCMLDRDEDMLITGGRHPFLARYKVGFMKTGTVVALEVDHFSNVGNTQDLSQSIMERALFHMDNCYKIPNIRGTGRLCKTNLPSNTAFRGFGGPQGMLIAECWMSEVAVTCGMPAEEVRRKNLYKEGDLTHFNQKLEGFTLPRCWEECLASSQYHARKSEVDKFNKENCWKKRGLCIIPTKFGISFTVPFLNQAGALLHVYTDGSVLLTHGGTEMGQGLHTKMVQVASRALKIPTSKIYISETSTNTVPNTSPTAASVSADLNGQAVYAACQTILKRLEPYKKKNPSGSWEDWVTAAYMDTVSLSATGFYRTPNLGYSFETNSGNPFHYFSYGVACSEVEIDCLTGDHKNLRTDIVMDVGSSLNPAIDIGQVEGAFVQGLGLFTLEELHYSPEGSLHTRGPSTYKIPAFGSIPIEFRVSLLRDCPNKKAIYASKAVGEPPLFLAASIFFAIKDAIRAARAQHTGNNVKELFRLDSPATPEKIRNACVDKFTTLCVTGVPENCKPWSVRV

SMILES | IC50 [1] | further results
CC(C)Oc1ccc(NC(=O)c2ccc(-c3nnn[nH]3)cc2)cc1 | 55 nM | Activity [2]: Active; Activity [3]: Active
Cc1nc(-c2ccc(OCC(C)C)c(C#N)c2)sc1C(=O)O [FEBUXOSTAT] | 6.91 nM | Activity [4]: Active
O=C(O)c1cc(-c2ccc(-c3nnn[nH]3)cc2)ccc1Cl | 720 nM | 
COc1ccc(NC(=O)c2ccc(-c3nnn[nH]3)cc2)cc1 | 40 nM | 
CC(=O)c1ccc(-c2ccc(-c3nnn[nH]3)cc2)cc1 | 180 nM | 
c1cc(-c2ccc(-c3nnn[nH]3)cc2)n[nH]1 |  | inhibition at 10 µM [5]: < 50%
CCOc1ccc(-c2ccc(-c3nnn[nH]3)cc2)cc1 | 440 nM | 
COc1ccccc1-c1ccc(-c2nnn[nH]2)cc1 | 1690 nM | 
CCOc1ccc(NC(=O)c2ccc(-c3nnn[nH]3)cc2)cc1 | 29.3 nM | Activity [2]: Active; Activity [3]: Active
O=Cc1cc(Cl)ccc1-c1ccc(-c2nnn[nH]2)cc1 | 540 nM | 
O=C(O)c1ccc(-c2ccc(-c3nnn[nH]3)cc2)cc1Cl | 410 nM | 
c1ncc(-c2ccc(-c3nnn[nH]3)cc2)cn1 | 920 nM | 
COc1cccc(-c2ccc(-c3nnn[nH]3)cc2)c1 | 2090 nM | 
c1cc(-c2ccc(-c3nnn[nH]3)cc2)co1 |  | inhibition at 10 µM [5]: < 50%
COc1ccc(-c2ccc(-c3nnn[nH]3)cc2)cc1 | 1390 nM | 
CCOc1ccccc1-c1ccc(-c2nnn[nH]2)cc1 |  | inhibition at 10 µM [5]: < 50%
CC(C)(C)c1ccc(-c2ccc(-c3nnn[nH]3)cc2)cc1 | 4230 nM | 
O=C(Nc1ccc(Cl)cc1)c1ccc(-c2nnn[nH]2)cc1 | 26.3 nM | Activity [2]: Active; Activity [3]: Active
CCOc1ccc(CNC(=O)c2ccc(-c3nnn[nH]3)cc2)cc1 | 370 nM | 
c1cc(-c2ccc(-c3nnn[nH]3)cc2)cs1 |  | inhibition at 10 µM [5]: < 50%
CCCOc1ccc(NC(=O)c2ccc(-c3nnn[nH]3)cc2)cc1 | 160 nM | 
O=Cc1ccccc1-c1ccc(-c2nnn[nH]2)cc1 | 490 nM | 
